Data taken from patent publication US20230233736A1, “ANTIMICROBIAL FORMULATIONS COMPRISING SILICONE” (AMICOAT AS, priority 2020, published 2023).

Key:
[1] = tested on: Staphylococcus aureus, strain ATCC 25923; details: S. aureus ATCC 25923
[2] = tested on: Stenotrophomonas maltophilia; test: MIC microbroth dilution (CLSI); format: cell-based; details: antibiotic-susceptible clinical isolate
From the text: (§1) Cation-adjusted Mueller-Hinton broth (Oxoid Ltd., Basingstoke, UK and Trek Diagnostic Systems Ltd., East Grinstead, UK) (supplemented with 5% laked horse blood for Streptococcus spp., Corynebacterium jeikeium and Listeria monocytogenes) was used for aerobic bacteria, with an initial inoculum of approximately 10^5 colony-forming units (CFU)/m L.

Listeria monocytogenes = test: MIC microbroth dilution (CLSI); format: cell-based; details: antibiotic-susceptible clinical isolate
From the text: as §1

Enterococcus gallinarum = test: MIC microbroth dilution (CLSI); format: cell-based; details: vancomycin-resistant (VanC) clinical isolate
From the text: as §1

Salmonella sp = test: MIC microbroth dilution (CLSI); format: cell-based
From the text: as §1

Shigella sp = test: MIC microbroth dilution (CLSI); format: cell-based; details: antibiotic-susceptible clinical isolate
From the text: as §1

[3] = tested on: Staphylococcus saprophyticus; test: MIC microbroth dilution (CLSI); format: cell-based; details: antibiotic susceptible clinical isolate
From the text: as §1

S. aureus (ATCC 8325) = test: Modified AATCC 100 method, silicone membrane valves
Streptococcus pyogenes [4] = format: cell-based; details: Macrolide (M-type) resistance clinical isolate
From the text: as §1

P. aeruginosa (PAO1) = test: Modified AATCC 100 method, silicone membrane valves; details: low loading, original surface (A*)
[5] = tested on: Methicillin resistant Staphylococcus epidermidis (MRSE) strain ATCC 27626; details: MRSE ATCC 27626
Bacteroides fragilis = test: MIC microbroth dilution (CLSI); format: cell-based; design: unit not given beside the values; details: ATCC 25285; SBB
Eggerthella lenta = test: MIC microbroth dilution (CLSI); format: cell-based; design: unit not given beside the values; details: ATCC 43055; SBB
Cryptococcus neoformans = test: MIC microbroth dilution (CLSI); format: cell-based; details: G.R. Micro collection
trypsin = test: in vitro; format: in vitro ADME; details: pH 8.6
Description: Each peptide was dissolved in a 0.1 M NH4HCO3 buffer (pH 6.5) to yield a final peptide concentration of 1 mg/ml. A trypsin solution was prepared by dissolving 1 mg of trypsin in 50 ml 0.1 M NH4HCO3 buffer (pH 8.2). For the stability determination, 250 μl freshly made trypsin solution and 250 μl peptide solution were incubated in 2 ml of 0.1 M NH4HCO3 buffer (pH 8.6) at 37° C. on a rocking table. Aliquots of 0.5 ml were sampled at different time intervals, diluted with 0.5 ml water:acetonitrile (60:40 v/v) containing 1% TFA and analysed by RP-HPLC as described above. Samples without trypsin addition taken at 0 h and after 20 h at 37° C. were used as negative controls. Integration of the peak area at 254 nm for samples taken during the first 5 hours of the assay was used to generate the […].

Candida tropicalis = test: MIC microbroth dilution (CLSI); format: cell-based; details: ATCC750 - reference strain
[6] = tested on: Methicillin resistant Staphylococcus aureus (MRSA) strain ATCC 33591; details: MRSA ATCC 33591
Clostridium difficile = test: MIC microbroth dilution (CLSI); format: cell-based; design: unit not given beside the values; details: antibiotic-susceptible clinical isolate
[7] = tested on: Trichophyton mentagrophytes; test: MIC microbroth dilution (CLSI); format: cell-based; details: G.R. Micro collection
Microsporum canis = test: MIC microbroth dilution (CLSI); format: cell-based; details: G.R. Micro collection
Streptococcus pyogenes [8] = test: Murine skin infection model, topical treatment; format: in vivo, mice; details: FIG. 2
Description: (§2) The skin of mice was infected with Staphylococcus aureus or Streptococcus pyogenes and subsequently given a total of three treatments at three hourly intervals. Three hours after the last treatment, skin biopsies were collected and the number of colony forming units (CFUs) present in the skin sample was determined. Results are shown in FIGS. 1 and 2, expressed as the number of colony forming units per mouse.
In experiment 2 (FIG. 2), compound 2 was applied in two different concentrations, as either a 1% or a 2% gel. A placebo gel and a known antibacterial “bactroban” were used as controls.
as §2, with “3, 4” for “1”, “5” for “2,”
In experiment 2 (FIG. 4), compound 7 was applied in two different concentrations, as either a 1% or a 2% gel. A placebo gel and a known antibacterial “bactroban (mupericin)” were used as controls.

S. epidermidis (RP62A) = test: Modified AATCC 100 method, silicone membrane valves; details: low loading, original surface (A*)

CC(C)(C)c1cc(C(C)(C)C)c2[nH]c(C(C)(C)C)c(CC(NC(=O)C(N)CCCNC(=N)N)C(=O)NC(CCCNC(=N)N)C(=O)NCCc3ccccc3)c2c1 (centres unmarked) [Compound 2]
minimum inhibitory concentration (MIC) (S. aureus): 2 to 4 µg/mL
MIC [1]: <3 µM
MIC [2]: 8
MIC (Listeria monocytogenes): 16
MIC (Enterococcus gallinarum): 4
MIC (Salmonella sp; antibiotic-susceptible clinical isolate): 8
MIC (Salmonella sp; multi-drug resistant clinical isolate): 8
MIC (Shigella sp): 8
MIC [3]: 1
CFU (samples containing AMC-109) (S. aureus (ATCC 8325); High loading, swell concentration 8.3 mg/ml, original surface (A*)): 0
CFU (samples containing AMC-109) (S. aureus (ATCC 8325); Low loading, 1.7 mg/ml, surface created by slicing (B*)): 0
CFU (samples containing AMC-109) (S. aureus (ATCC 8325); Low with washing, 3.1 mg/ml, original surface (A*)): 0
CFU (samples containing AMC-109) (S. aureus (ATCC 8325); Low with washing, 3.1 mg/ml, surface created by slicing (B*)): 0
MIC (Streptococcus pyogenes [4]): 16
CFU (samples containing AMC-109) (P. aeruginosa (PAO1)): 0
MIC [5]: <3 µM
MIC (Bacteroides fragilis): 64
MIC (Eggerthella lenta): 32
MIC (Cryptococcus neoformans): 4
half-life at 0.1 mg/ml (trypsin): > 24 h
minimum inhibitory concentration (MIC) (S. epidermidis): 2 to 4 µg/mL
MIC (Candida tropicalis): 4
MIC [6]: <3 µM
MIC (Clostridium difficile): 16
MIC [7]: 8
MIC (Microsporum canis): 8
number of CFUs, 2% gel compared with 1% gel (Streptococcus pyogenes [8]): more effective than the gel containing only 1% of compound 2
number of colony forming units (CFU) in skin biopsy (Streptococcus pyogenes [8]; 1% or 2% gel, three treatments at three hourly intervals): more effective at reducing the number of CFUs than the placebo gel or the bactroban
CFU (samples containing AMC-109) (S. epidermidis (RP62A)): 0
